The record followed here is ChEMBL document CHEMBL1909046, “DrugMatrix in vitro pharmacology data”.

As a reminder, the IC50 is the concentration that inhibits the measured activity by half. In general, Ki refers to the dissociation constant of the complex between target and ligand, obtained from inhibition or displacement.

The target in data set [1] is T1, Alpha-1D adrenergic receptor (Homo sapiens, UniProt P25100). Further: in other assays of this panel Not Active means under 50% inhibition at 10 µM.
T1 sequence (P25100 whole entry): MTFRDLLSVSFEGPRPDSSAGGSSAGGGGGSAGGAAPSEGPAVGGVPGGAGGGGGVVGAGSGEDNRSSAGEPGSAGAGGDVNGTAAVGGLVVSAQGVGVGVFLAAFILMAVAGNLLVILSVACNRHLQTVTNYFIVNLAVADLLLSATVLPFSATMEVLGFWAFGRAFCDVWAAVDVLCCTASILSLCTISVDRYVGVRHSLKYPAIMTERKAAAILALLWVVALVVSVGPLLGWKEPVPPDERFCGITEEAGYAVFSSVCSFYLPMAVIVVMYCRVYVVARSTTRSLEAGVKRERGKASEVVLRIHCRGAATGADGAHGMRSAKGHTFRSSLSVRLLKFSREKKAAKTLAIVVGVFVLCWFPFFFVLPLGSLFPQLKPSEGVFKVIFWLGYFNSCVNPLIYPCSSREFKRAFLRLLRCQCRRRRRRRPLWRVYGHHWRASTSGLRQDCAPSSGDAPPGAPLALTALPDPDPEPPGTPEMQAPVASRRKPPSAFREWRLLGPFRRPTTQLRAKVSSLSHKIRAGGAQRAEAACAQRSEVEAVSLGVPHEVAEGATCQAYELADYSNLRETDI
In kind it is cell membranes, HEK293, Membrane. Conditions: hek293.

In data set [2] the target is T2, B2 bradykinin receptor (Homo sapiens, UniProt P30411). Further: in other assays of this panel Not Active means under 50% inhibition at 10 µM.
T2 sequence (P30411 whole entry): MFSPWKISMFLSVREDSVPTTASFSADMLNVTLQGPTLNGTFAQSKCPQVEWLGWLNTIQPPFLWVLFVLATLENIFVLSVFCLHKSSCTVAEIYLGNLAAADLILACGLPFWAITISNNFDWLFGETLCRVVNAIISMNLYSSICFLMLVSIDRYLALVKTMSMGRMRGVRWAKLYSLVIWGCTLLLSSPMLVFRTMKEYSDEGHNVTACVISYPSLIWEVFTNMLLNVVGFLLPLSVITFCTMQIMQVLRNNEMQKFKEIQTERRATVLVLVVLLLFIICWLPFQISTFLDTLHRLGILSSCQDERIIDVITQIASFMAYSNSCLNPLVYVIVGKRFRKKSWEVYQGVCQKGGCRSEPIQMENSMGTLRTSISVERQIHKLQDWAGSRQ
In kind it is cell membranes, Membrane. Conditions: chem-1.

Data set [3] can be described thus: DRUGMATRIX: Serotonin (5-Hydroxytryptamine) 5-HT3 radioligand binding (ligand: [3H] GR-65630). In kind it is cell membranes, Membrane. Conditions: hek293, Not Active = under 50% inhibition at 10 µM.
In data set [4] the target is Vasopressin V1a receptor (Homo sapiens, UniProt P37288). In kind it is cell membranes, Membrane. Conditions: hek293. Further: in other assays of this panel Not Active means under 50% inhibition at 10 µM.
Vasopressin V1a receptor, sequence (P37288 whole entry): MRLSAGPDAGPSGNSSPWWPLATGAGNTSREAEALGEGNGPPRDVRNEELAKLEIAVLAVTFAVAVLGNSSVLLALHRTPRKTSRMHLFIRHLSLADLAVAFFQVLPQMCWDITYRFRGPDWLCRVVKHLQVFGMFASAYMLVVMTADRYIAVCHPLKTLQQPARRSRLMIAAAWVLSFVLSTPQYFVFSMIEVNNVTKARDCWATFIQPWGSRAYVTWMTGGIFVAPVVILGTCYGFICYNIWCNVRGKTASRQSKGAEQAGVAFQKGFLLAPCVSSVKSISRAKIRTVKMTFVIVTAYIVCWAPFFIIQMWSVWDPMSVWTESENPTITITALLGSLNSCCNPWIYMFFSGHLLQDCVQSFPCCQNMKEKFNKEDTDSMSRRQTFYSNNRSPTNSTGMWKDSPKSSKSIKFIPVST
A short description of data set [5]: DRUGMATRIX: Nicotinic Acetylcholine radioligand binding (ligand: [125I] Epibatidine). The data set is classed as cell membranes, Membrane. As to conditions: imr-32; Not Active = under 50% inhibition at 10 µM.
Data set [6] can be described thus: DRUGMATRIX: Phosphodiesterase PDE3 enzyme inhibition (substrate: [3H]cAMP + cAMP). As to conditions: platelet; Not Active = under 50% inhibition at 10 µM. The data set is classed as tissue-based, Homo sapiens.
The nature of data set [7]: DRUGMATRIX: Purinergic P2X radioligand binding (ligand: [3H] alpha, beta-Methylene-ATP). The data set is classed as cell membranes, Oryctolagus cuniculus, New Zealand albino, Urinary bladder, Membrane. Conditions: Not Active = under 50% inhibition at 10 µM.
Data set [8] has as its target Cytochrome P450 2C19 (Homo sapiens, UniProt P33261). As to conditions: bti-tn-5b1-4. Further: in other assays of this panel Not Active means under 50% inhibition at 10 µM.

Cytochrome P450 2C19, sequence (P33261 whole entry): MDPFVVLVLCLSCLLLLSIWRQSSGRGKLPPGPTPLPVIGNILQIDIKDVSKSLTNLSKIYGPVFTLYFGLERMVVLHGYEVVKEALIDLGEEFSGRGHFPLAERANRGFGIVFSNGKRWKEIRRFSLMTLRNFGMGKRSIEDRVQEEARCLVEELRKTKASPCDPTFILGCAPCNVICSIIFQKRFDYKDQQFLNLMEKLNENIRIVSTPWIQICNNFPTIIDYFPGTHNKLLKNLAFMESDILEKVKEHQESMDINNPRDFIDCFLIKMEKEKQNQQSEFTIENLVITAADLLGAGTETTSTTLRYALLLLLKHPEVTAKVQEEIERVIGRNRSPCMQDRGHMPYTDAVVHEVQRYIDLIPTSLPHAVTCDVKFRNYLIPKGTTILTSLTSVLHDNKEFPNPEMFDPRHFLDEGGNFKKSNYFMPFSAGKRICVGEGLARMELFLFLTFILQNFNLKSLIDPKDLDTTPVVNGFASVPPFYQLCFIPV

On to `CC(C)(Oc1ccc(C2CCCc3ccccc32)cc1)C(=O)O` (configuration not stated) [NAFENOPIN], for which the IC50 result in data set [1], in data set [2], in data set [3], in data set [4], in data set [5] and in data set [6] was “Not Active” each time. Besides, the concentration for half-maximal inhibition (IC50) result in data set [7] and in data set [8] was “Not Active” throughout. Further, the Ki entry in data set [3], in data set [5], in data set [6], in data set [7] and in data set [8] was “Not Active” each time.
Consider `CC(C)[C@H]1CC[C@H](C(=O)N[C@H](Cc2ccccc2)C(=O)O)CC1` [NATEGLINIDE], for which the IC50 result in data set [1], in data set [2], in data set [3], in data set [4], in data set [5] and in data set [6] was “Not Active” each time. In addition, the IC50 result in data set [7] and in data set [8] was “Not Active” in each case. The Ki result in data set [3], in data set [5], in data set [6], in data set [7] and in data set [8] was “Not Active” in each case.
Regarding `COc1ccc2[nH]c([S+]([O-])Cc3ncc(C)c(OC)c3C)nc2c1` (configuration not stated) [OMEPRAZOLE], the IC50 entry in data set [1], in data set [2], in data set [3], in data set [4], in data set [5] and in data set [6] was “Not Active” throughout. Besides, the IC50 entry in data set [7] and in data set [8] was “Not Active” in each case. The Ki result in data set [3], in data set [5], in data set [6], in data set [7] and in data set [8] was “Not Active” throughout.
In the case of `Cc1nccn1CC1CCc2c(c3ccccc3n2C)C1=O` (configuration not stated) [ONDANSETRON], the IC50 result was “Not Active” in data set [1]; “Not Active” in data set [2]; 9.29 nM in data set [3] (read-out: IC50); “Not Active” in data set [4]; “Not Active” in data set [5]; “Not Active” in data set [6]. Moreover, the IC50 entry in data set [7] and in data set [8] was “Not Active” in each case. Moreover, the Ki was 2.09 nM in data set [3] (read-out: Ki); “Not Active” in data set [5]; “Not Active” in data set [6]; “Not Active” in data set [7]; “Not Active” in data set [8].
For the compound `O=C(C1CCCCC1)N1CC(=O)N2CCc3ccccc3C2C1` (configuration not stated) [PRAZIQUANTEL], the IC50 entry in data set [1], in data set [2], in data set [3], in data set [4], in data set [5] and in data set [6] was “Not Active” in each case. The half-maximal inhibitory concentration (IC50) result in data set [7] and in data set [8] was “Not Active” throughout. Further, the Ki result in data set [3], in data set [5], in data set [6], in data set [7] and in data set [8] was “Not Active” in each case.
Consider `CCN(CC)CCOC(=O)c1ccc(N)cc1` [PROCAINE], for which the IC50 result in data set [1], in data set [2], in data set [3], in data set [4], in data set [5] and in data set [6] was “Not Active” in each case. Besides, the IC50 result in data set [7] and in data set [8] was “Not Active” in each case. Besides, the Ki entry in data set [3], in data set [5], in data set [6], in data set [7] and in data set [8] was “Not Active” each time.
As for `CCCN(CCC)C(=O)C(CCC(=O)O)NC(=O)c1ccccc1` (configuration not stated) [PROGLUMIDE], the IC50 entry in data set [1], in data set [2], in data set [3], in data set [4], in data set [5] and in data set [6] was “Not Active” each time. In addition, the IC50 entry in data set [7] and in data set [8] was “Not Active” throughout. The Ki result in data set [3], in data set [5], in data set [6], in data set [7] and in data set [8] was “Not Active” in each case.
For `NC(=O)c1cnccn1` [PYRAZINAMIDE], the IC50 entry in data set [1], in data set [2], in data set [3], in data set [4], in data set [5] and in data set [6] was “Not Active” in each case. The IC50 result in data set [7] and in data set [8] was “Not Active” each time. Further, the Ki result in data set [3], in data set [5], in data set [6], in data set [7] and in data set [8] was “Not Active” in each case.
Turning to `OC(CCN1CCCCC1)(c1ccccc1)C1CCCCC1` (configuration not stated) [TRIHEXYPHENIDYL], the IC50 result in data set [1], in data set [2], in data set [3], in data set [4], in data set [5] and in data set [6] was “Not Active” each time. Also, the IC50 entry in data set [7] and in data set [8] was “Not Active” throughout. Also, the Ki result in data set [3], in data set [5], in data set [6], in data set [7] and in data set [8] was “Not Active” throughout.
Regarding `Cc1cc2cc3c(C)cc(=O)oc3c(C)c2o1` [TRIOXSALEN], the IC50 entry in data set [1], in data set [2], in data set [3], in data set [4], in data set [5] and in data set [6] was “Not Active” throughout. The IC50 result in data set [7] and in data set [8] was “Not Active” throughout. Further, the Ki entry in data set [3], in data set [5], in data set [6], in data set [7] and in data set [8] was “Not Active” each time.
Turning to `CCCC(CCC)C(=O)O` [VALPROIC ACID], the IC50 result in data set [1], in data set [2], in data set [3], in data set [4], in data set [5] and in data set [6] was “Not Active” throughout. Also, the IC50 result in data set [7] and in data set [8] was “Not Active” throughout. For the same compound, the Ki result in data set [3], in data set [5], in data set [6], in data set [7] and in data set [8] was “Not Active” in each case.
In the case of `CCC1=C[C@@H]2CN(C1)Cc1c([nH]c3ccccc13)[C@@](C(=O)OC)(c1cc3c(cc1OC)N(C)[C@H]1[C@@](O)(C(=O)OC)[C@H](OC(C)=O)[C@]4(CC)C=CCN5CC[C@]31[C@@H]54)C2` [VINORELBINE], the IC50 entry in data set [1], in data set [2], in data set [3], in data set [4], in data set [5] and in data set [6] was “Not Active” in each case. The IC50 entry in data set [7] and in data set [8] was “Not Active” throughout. Also, the inhibition constant (Ki) entry in data set [3], in data set [5], in data set [6], in data set [7] and in data set [8] was “Not Active” each time.
In the case of CADMIUM DICHLORIDE, the half-maximal inhibitory concentration (IC50) result in data set [1], in data set [2], in data set [3], in data set [4], in data set [5] and in data set [6] was “Not Active” throughout. Also, the IC50 entry in data set [7] and in data set [8] was “Not Active” in each case. Also, the Ki result in data set [1], in data set [2], in data set [3], in data set [4], in data set [5] and in data set [6] was “Not Active” throughout. In addition, the Ki result in data set [7] and in data set [8] was “Not Active” throughout.
